Data as given in ChEMBL document CHEMBL1201862, “PubChem BioAssay data set” (2004).
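Five concentrations, 48 hours, 96-well plates. At the GI50, growth is halved.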 Active and inactive are the calls of the source. Cut-off read from the data, not from the text of the source: active = GI50 up to about 1.1 µM and inactive = higher.

Experiments:
Test in all cases: NCI-60 cell line screen, 48 h
786-0 = tested on: 786-0
A549 = tested on: A549
ACHN = tested on: ACHN
CCRF-CEM = tested on: CCRF-CEM
COLO 205 = tested on: COLO 205
DLD-1 = tested on: DLD-1
DMS-114 = tested on: DMS-114
DMS-273 = tested on: DMS-273
HCC 2998 = tested on: HCC 2998
HCT-116 = tested on: HCT-116
HCT-15 = tested on: HCT-15
HL-60 = tested on: HL-60
HOP-62 = tested on: HOP-62
HOP-92 = tested on: HOP-92
HT-29 = tested on: HT-29
IGROV-1 = tested on: IGROV-1
K562 = tested on: K562
KM-20L2 = tested on: KM-20L2
KM12 = tested on: KM12
LOX IMVI = tested on: LOX IMVI
LXFL 529 = tested on: LXFL 529
M14 = tested on: M14
M19-MEL = tested on: M19-MEL
MOLT-4 = tested on: MOLT-4
Malme-3M = tested on: Malme-3M
NCI-H226 = tested on: NCI-H226
NCI-H460 = tested on: NCI-H460
NCI-H522 = tested on: NCI-H522
OVCAR-3 = tested on: OVCAR-3
OVCAR-4 = tested on: OVCAR-4
OVCAR-5 = tested on: OVCAR-5
OVCAR-8 = tested on: OVCAR-8
RPMI-8226 = tested on: RPMI-8226
SF-268 = tested on: SF-268
SF-539 = tested on: SF-539
SK-MEL-28 = tested on: SK-MEL-28
SK-MEL-2 = tested on: SK-MEL-2
SK-MEL-5 = tested on: SK-MEL-5
SK-OV-3 = tested on: SK-OV-3
SN12C = tested on: SN12C
SNB-19 = tested on: SNB-19
SNB-78 = tested on: SNB-78
SR = tested on: SR
SW-620 = tested on: SW-620
TK-10 = tested on: TK-10
U-251 = tested on: U-251
UACC-62 = tested on: UACC-62
UO-31 = tested on: UO-31
HOP-18 = tested on: HOP-18
NCI-H23 = tested on: NCI-H23
RXF 393 = tested on: RXF 393
SF-295 = tested on: SF-295
SNB-75 = tested on: SNB-75
UACC-257 = tested on: UACC-257
A498 = tested on: A498
CAKI-1 = tested on: CAKI-1
EKVX = tested on: EKVX

## COc1cc(C(=O)O)cc2c1[nH]c1ccccc12 [MUKOEIC ACID]
786-0
  GI50: > 25 µM (inactive)
A549
  GI50: > 25 µM (inactive)
ACHN
  GI50: > 25 µM (inactive)
CCRF-CEM
  GI50: > 25 µM (inactive)
COLO 205
  GI50: > 25 µM (inactive)
DLD-1
  GI50: > 25 µM (inactive)
DMS-114
  GI50: > 25 µM (inactive)
DMS-273
  GI50: > 25 µM (inactive)
HCC 2998
  GI50: > 25 µM (inactive)
HCT-116
  GI50: > 25 µM (inactive)
HCT-15
  GI50: > 25 µM
HL-60
  GI50: > 25 µM (inactive)
HOP-62
  GI50: > 25 µM (inactive)
HOP-92
  GI50: > 25 µM (inactive)
HT-29
  GI50: > 25 µM (inactive)
IGROV-1
  GI50: > 25 µM (inactive)
K562
  GI50: > 25 µM (inactive)
KM-20L2
  GI50: > 25 µM (inactive)
KM12
  GI50: > 25 µM (inactive)
LOX IMVI
  GI50: > 25 µM (inactive)
LXFL 529
  GI50: > 25 µM (inactive)
M14
  GI50: > 25 µM (inactive)
M19-MEL
  GI50: > 25 µM (inactive)
MOLT-4
  GI50: > 25 µM (inactive)
Malme-3M
  GI50: > 25 µM (inactive)
NCI-H226
  GI50: > 25 µM (inactive)
NCI-H460
  GI50: > 25 µM (inactive)
NCI-H522
  GI50: > 25 µM (inactive)
OVCAR-3
  GI50: > 25 µM (inactive)
OVCAR-4
  GI50: > 25 µM (inactive)
OVCAR-5
  GI50: > 25 µM (inactive)
OVCAR-8
  GI50: > 25 µM (inactive)
RPMI-8226
  GI50: > 25 µM (inactive)
SF-268
  GI50: > 25 µM (inactive)
SF-539
  GI50: > 25 µM (inactive)
SK-MEL-28
  GI50: > 25 µM (inactive)
SK-MEL-2
  GI50: > 25 µM (inactive)
SK-MEL-5
  GI50: > 25 µM (inactive)
SK-OV-3
  GI50: > 25 µM (inactive)
SN12C
  GI50: > 25 µM (inactive)
SNB-19
  GI50: > 25 µM (inactive)
SNB-78
  GI50: > 25 µM (inactive)
SR
  GI50: > 25 µM (inactive)
SW-620
  GI50: > 25 µM (inactive)
TK-10
  GI50: > 25 µM (inactive)
U-251
  GI50: > 25 µM (inactive)
UACC-62
  GI50: > 25 µM (inactive)
UO-31
  GI50: > 25 µM (inactive)

## CC(=O)Oc1cc(OC(C)=O)c2c(=O)c3ccccc3n(C)c2c1
A549
  GI50: 41.3 µM (inactive)
ACHN
  GI50: 22 µM (inactive)
DLD-1
  GI50: 21.9 µM (inactive)
DMS-114
  GI50: 18.4 µM (inactive)
DMS-273
  GI50: 16 µM (inactive)
HCT-116
  GI50: 26.1 µM (inactive)
HCT-15
  GI50: 42.1 µM
HOP-18
  GI50: 14 µM (inactive)
HT-29
  GI50: 23.7 µM (inactive)
IGROV-1
  GI50: 14.7 µM (inactive)
KM12
  GI50: 33.2 µM (inactive)
LOX IMVI
  GI50: 11.5 µM (inactive)
LXFL 529
  GI50: 34.8 µM (inactive)
M19-MEL
  GI50: 21.6 µM (inactive)
MOLT-4
  GI50: 38 µM (inactive)
Malme-3M
  GI50: 25.7 µM (inactive)
NCI-H226
  GI50: 17.1 µM (inactive)
NCI-H23
  GI50: 22.6 µM (inactive)
NCI-H460
  GI50: 19.4 µM (inactive)
NCI-H522
  GI50: 10.4 µM (inactive)
OVCAR-3
  GI50: 56.9 µM (inactive)
OVCAR-4
  GI50: 48.9 µM (inactive)
OVCAR-8
  GI50: 16 µM (inactive)
RXF 393
  GI50: 34 µM (inactive)
SF-268
  GI50: 23.2 µM (inactive)
SF-295
  GI50: 13.1 µM (inactive)
SF-539
  GI50: 18.7 µM (inactive)
SK-MEL-28
  GI50: 25.4 µM (inactive)
SK-MEL-2
  GI50: 33 µM (inactive)
SK-MEL-5
  GI50: 15.1 µM (inactive)
SK-OV-3
  GI50: 25.2 µM (inactive)
SN12C
  GI50: 25.5 µM (inactive)
SNB-19
  GI50: 33.7 µM (inactive)
SNB-75
  GI50: 27.4 µM (inactive)
SNB-78
  GI50: 31.6 µM (inactive)
TK-10
  GI50: 29.8 µM (inactive)
UACC-257
  GI50: 30.1 µM (inactive)
UACC-62
  GI50: 31.8 µM (inactive)
UO-31
  GI50: 21.2 µM (inactive)

## C=CCCc1cc(OC)ccc1CN(C)C(C)(C)CO
786-0
  GI50: > 100 µM (inactive)
A498
  GI50: > 100 µM (inactive)
A549
  GI50: > 100 µM (inactive)
ACHN
  GI50: > 100 µM (inactive)
CAKI-1
  GI50: > 100 µM (inactive)
CCRF-CEM
  GI50: > 100 µM (inactive)
COLO 205
  GI50: > 100 µM (inactive)
DLD-1
  GI50: > 100 µM (inactive)
DMS-114
  GI50: > 100 µM (inactive)
DMS-273
  GI50: > 100 µM (inactive)
EKVX
  GI50: > 100 µM (inactive)
HCT-116
  GI50: > 100 µM (inactive)
HCT-15
  GI50: > 100 µM
HOP-18
  GI50: > 100 µM (inactive)
HOP-62
  GI50: > 100 µM (inactive)
HOP-92
  GI50: > 100 µM (inactive)
HT-29
  GI50: > 100 µM (inactive)
IGROV-1
  GI50: > 100 µM (inactive)
K562
  GI50: > 100 µM (inactive)
KM-20L2
  GI50: > 100 µM (inactive)
KM12
  GI50: > 100 µM (inactive)
LOX IMVI
  GI50: > 100 µM (inactive)
M19-MEL
  GI50: > 100 µM (inactive)
Malme-3M
  GI50: > 100 µM (inactive)
NCI-H23
  GI50: > 100 µM (inactive)
NCI-H460
  GI50: > 100 µM (inactive)
OVCAR-3
  GI50: > 100 µM (inactive)
OVCAR-4
  GI50: > 100 µM (inactive)
OVCAR-5
  GI50: > 100 µM (inactive)
OVCAR-8
  GI50: > 100 µM (inactive)
RPMI-8226
  GI50: > 100 µM (inactive)
RXF 393
  GI50: > 100 µM (inactive)
SF-268
  GI50: > 100 µM (inactive)
SF-295
  GI50: > 100 µM (inactive)
SF-539
  GI50: > 100 µM (inactive)
SK-MEL-28
  GI50: > 100 µM (inactive)
SK-MEL-2
  GI50: > 100 µM (inactive)
SK-MEL-5
  GI50: > 100 µM (inactive)
SN12C
  GI50: > 100 µM (inactive)
SNB-19
  GI50: > 100 µM (inactive)
SNB-75
  GI50: 85.7 µM (inactive)
SNB-78
  GI50: > 100 µM (inactive)
SR
  GI50: > 100 µM (inactive)
SW-620
  GI50: > 100 µM (inactive)
TK-10
  GI50: > 100 µM (inactive)
U-251
  GI50: > 100 µM (inactive)
UACC-257
  GI50: > 100 µM (inactive)
UACC-62
  GI50: > 100 µM (inactive)
